# Patent publication EP2229935A1, “Peptide derivatives or pharmaceutically acceptable salts thereof, method for producing the same, use of said derivatives and pharmaceutical composition” (Nebolsin, Vladimir Evgenievich, priority 1997, dated 1999)
# Marks after values point to notes of the source that are not given here.
# Legend:
# [1] = test system: peripheral blood neutrophils; test: Activity of peripheral blood neutrophils in mice with LLC; assay type: in vivo, C57BL/6 female mice; details: Cyclophosphane 5 times 20.0 mg/kg (in 48 hours) for 10 days
# Method: Experiments were carried out on C57BL/6 female mice with intramuscularly transplanted LLC carcinoma. Activity of neutrophils was measured by days 11 and 14.
# • control - animals with LLC tumor, 10 animals; • animals with LLC tumor + compound III at a dose 500.0 µg/kg for 10 days. 8 animals; • animals with LLC tumor + Cyclophosphane 5 times at a dose 20.0 mg/kg (in 48 hours) for 10 days, 8 animals; • compound III and Cyclophosphane according to the above dosage regimen, 8 animals.
# Experiment duration was 14 days.
# [2] = test system: Lewis pulmonary carcinoma (LLC); test: LLC metastasizing with surgical resection of the primary tumor node, alone and with Cyclophosphane; assay type: in vivo, C57BL/6 female mice; details: 96 hour interval, 100 µg/kg
# Method: An important property of the compounds is their ability to manifest pharmacological activity on the model with resection of the primary tumor node and not to lower therapeutic efficacy of respective antitumor drugs. […] Surgical resection of the primary tumor node was performed by day 13 following tumor transplantation. The test anitumor compounds were administered according to two dosage regimens:
# Dosage regimen 1 - animals were administered compound III from day 1 till day 13 of experiment at a dose 500 µg/kg (group 1); Cyclophosphane was administered intraperitoneally two times before operation with 96 hour interval at a dose 100 µg/kg (group 2); combined administration of compound III and Cyclophosphane was similar to administration of substances in groups 1 and 2 (group 3). Number of metastases was calculated by day 29 of experiment;
# Dosage regimen 2 - animals were administered compound III from day 14 of experiment (commencement of administration 24 hours post operation) till day 28 (group 4); Cyclophosphane was administered twice post operation with 96 hour interval at a dose 100 µg/kg (group 5); combined administration of compound III and Cyclophosphane similar to administration of substances in groups 4 and 5 (group 6). Antimetastatic efficacy of the drugs was considered by day 29 of experiment.
# mongrel male mice [3] = test: Passive cutaneous anaphylaxis reaction; assay type: in vivo; details: PCA, oral 3 days, 10 µg/kg
# Method: Experiments were carried out on mongrel male mice with initial body mass 22-24 g. Each group included 10 animals. Sensibilization of animals was accomplished by intradermal injection of 20-30 µl of the serum of mice obtained from preliminaryly immunized animals comprising reagent antibodies against chicken ovalbumin (OVA). […] In 48 hours after sensibilzation an anaphylaxis-provoking OVA dose (1 mg and 0,2 ml Evans blue in 0.2 ml normal saline) were intravenously injected to mice. Passive cutaneous anaphylaxis reaction intensity (PCA) was determined in 30 minutes by the size (area) of a blue spot on the internal skin surface in the site of reagent anibodies' administration. Spot size was measured in two mutually perpendicular directions and the result was expressed in mm^2.
# peritoneal mast cells = test: Histamine secretion by peritoneal mast cells of sensitized rats; assay type: in vivo, Wistar male rats; details: intraperitoneal 3 days; for Stimulated secretion, percent: OVA-stimulated
# Method: Effects on histamine release. […] 2 ml of cellular suspension containing 0.1-0.2 x 10^6 MC/ml were incubated in the presence of […] OVA. Histamine secretion was expressed in percent to its total level. Histamine amount in samples was determined using spectrofluorimetric method [Short P.A., Burkhalter A., Cohn V.N. A method for fluorimetric assay of histamine in tissues. J. Pharmacol. Exper.
# Animals of the control group were intraperitonelly injected normal saline (group 1). Each group included 10 animals.
# mongrel guinea-pigs = test: Food anaphylaxis (active anaphylactic shock) in OVA-sensitized guinea pigs; details: oral 3 days before provoking anaphylaxis, 50 µg/kg
# hydroxyl radical = test: Hydroxyl radical formation in the Fenton reagent (chemiluminescence); assay type: biochemical
# mongrel male mice [4] = test: Average lifetime of mice in a closed volume (hypoxia); assay type: in vivo; details: without preliminary hypoxia, oral 2 hours before hypoxia, 300 mg/kg
# Method: (§1) The tests of determining average lifetime of animals in a closed volume and on the model of acute hypobaric hypoxia at the minimum atmospheric rarefaction (170-185 mm Hg) were used to study antihypoxic activity of the compunds of general formula (I).
# Mice were one by one placed into sealed glass jars and their lifetime was recorded.
# The experiment was carried out on 90 mongrel male mice having initial body mass 20 ± 0,5 g housed in cages by 10 animals and given a standard vivarium ration. Average lifetime of mice in closed vessels having volume 250 ml was preliminarily determined and it was 22 to 25 minutes. All the groups included 10 animals each.
# Experimental protocol: • a) - preliminary hypoxia for 12 minutes; • b) - first administration of a compound immediately following preliminary hypoxia; • c) - second administration of a compound in 24 hours after the first one, then daily for three days; • d) - recording lifetime of animals under hypoxic conditions in a sealed space 2 hours after the last administration of a compound.
# The test compounds were dissolved in distilled water and orally administered to animals for 5 days.
# Experimental groups: • Group 1 -(control) - without preliminary hipoxia with oral administration of distilled water for 5 days; • Groups 2 and 3 - administration of the compound XLIV using two doses 50 and 500 µg respectively; • Group 4 - oral administration of sodium oxybutyrate at a dose […] 2 hours before hypoxia; • Group 5 -(control)- with preliminary hypoxia for 12 minutes with subsequent administration of distilled water for 5 days; • Groups 6 and 7 - administration of the compound XLIV using two doses 50 and 500 µg respectively; • Groups 8 and 9 - administration of the compound III using two doses 50 and 500 µg respectively.
# mongrel mice = test: Acute hypobaric hypoxia model (AHBH); assay type: in vivo; details: single administration, 300,000 µg/kg
# Method: as §1
# Simulation of AHBH was done in a flow-through chamber at temperature 22°C. Experiments were carried out on mongrel mice with initial body mass 20 g at the minimum rarefaction 170-185 mm Hg, that corresponds to the altitude of 10500-11000 m. Lift rate was 35 m/second. Each group included 15 animals. Compounds were administered orally, lift on to altitude was performed 2 hours after the last administration.
# Groups of animals: • Group 1 - intact control -administration of normal saline four times. • Groups 2 and 3 - administration of the compound III at doses 50 and 500 µg/kg for 4 days. • Group 4 - single administration of sodium oxybutyrate at a dose […].
# [5] = regimen 1: intraperitoneally two times before operation
# [6] = regimen 2: twice post operation
structure (smiles),measurement,setting,value
"O=P1(N(CCCl)CCCl)NCCCO1 (stereo not shown) [Cyclophosphane, reference compound]",Percent of active neutrophils,[1]; Background,21.5 ± 3.4%
same,Percent of active neutrophils,[1]; day 11,7.6 ± 2.0%
same,Percent of active neutrophils,[1]; day 14,20.6 ± 6.0%
same,Mean number of metastases,[2]; [5],19.5 ± 5.1
same,Metastasizing inhibition percent,[2]; [5],43.9%
same,Metastasizing rate (%),[2]; [5],100%
same,Mean number of metastases,[2]; [6],18.0 ± 4.3
same,Metastasizing inhibition percent,[2]; [6],51.5%
same,Metastasizing rate (%),[2]; [6],100%
"CN(C)CCN(Cc1ccc(Cl)cc1)c1ccccn1 [Suprastine, reference compound]",Percent of the reaction inhibition,mongrel male mice [3],7.6%
same,"Reaction intensity, mm^2",mongrel male mice [3],82.1 ± 18.1 mm^2
same,"Stimulated secretion, percent",peritoneal mast cells; 1000 µg/kg,7.02%
same,"Histamine level, µg/10^6 MC",peritoneal mast cells; 1000 µg/kg,16.24*^1 µg/10^6 MC
same,"Spontaneous secretion, percent",peritoneal mast cells; 1000 µg/kg,5.62%
"N[C@H](CCC(=O)NCCc1c[nH]cn1)C(=O)O [compound XLV, γ -L-, D-glutamylhistamine]",Anaphylactic index,mongrel guinea-pigs,0.90*
same,Lethality in percent,mongrel guinea-pigs,6.7** percent
same,Seizures in percent,mongrel guinea-pigs,15.5* percent
same,"Stimulated secretion, percent",peritoneal mast cells; 50 µg/kg,"2.32*^1,3%"
same,"Histamine level, µg/10^6 MC",peritoneal mast cells; 50 µg/kg,16.90*^1 µg/10^6 MC
same,"Spontaneous secretion, percent",peritoneal mast cells; 50 µg/kg,"9.63*^1,3%"
same,relative effect: I+/I-,hydroxyl radical; 1 µM,1.0
same,Chemiluminiscence intensity (mV) + σn-1,"hydroxyl radical; 1 µM, control of the series as in the table",7666 ± 101 mV
same,relative effect: I+/I-,hydroxyl radical; 0.01 mM,0.95
same,Chemiluminiscence intensity (mV) + σn-1,"hydroxyl radical; 0.01 mM, control of the series as in the table",7443 ± 267 mV
same,relative effect: I+/I-,hydroxyl radical; 0.1 mM,0.74
same,Chemiluminiscence intensity (mV) + σn-1,"hydroxyl radical; 0.1 mM, control of the series as in the table",5800 ± 247 mV
same,relative effect: I+/I-,hydroxyl radical; 1 mM,0.16
same,Chemiluminiscence intensity (mV) + σn-1,"hydroxyl radical; 1 mM, control of the series 7839 ± 171, 1120 ± 163, 4974 ± 283 or 1332 ± 172",2195 ± 18 mV
"O=C(O)CCCO [sodium oxybutyrate, reference compound]",Lifetime (seconds),mongrel male mice [4],"2103,9±100,5**^1 seconds"
same,Effect in percent,mongrel mice; lifetime relative to control,"119 ± 4,4%"
same,Lifetime under hypoxic conditions (minutes),"mongrel mice; mice, 170-185 mm Hg","364,3 ± 13,5 minutes"
